Like-named read-outs stand apart in the source and are kept apart here.
Tests used:
[1] = tested on: MM200 melanoma cell line; experiment: Proliferation assay (MTT); assay type: cell-based; conditions: read-out: IC50
[2] = tested on: CP70 ovarian cancer cell line; experiment: Proliferation assay (MTT); assay type: cell-based; conditions: Table 2.2 (further studies); Ovarian CP70; read-out: IC50
[3] = tested on: A2058 melanoma cell line; experiment: Proliferation assay (MTT); assay type: cell-based; conditions: Homo sapiens, A2058, Table 15; melanoma A2058
[4] = tested on: PGE2; experiment: Eicosanoid synthesis in LPS-stimulated murine macrophages (RAW 264.7); assay type: cell-based, mouse; conditions: 10 μM; negative values indicate inhibition
Experimental: (§1) The mouse macrophage cell line RAW 264.7 was cultured in DMEM supplemented with foetal calf serum (FCS), 2 mM glutamine and 50 U/ml penicillin/streptomycin. Subconfluent cells were detached from the flask by gentle scraping and 24-well plates seeded at 5×10^5 cells per well and allowed to adhere for 1 hr. Cells were then treated either test compound at a concentration of 10 μM (in 0.025% DMSO) or vehicle alone, and incubated for 1 hr. LPS 50 ng/ml (LPS—Sigma-Aldrich) was then added. After incubation for 16 hrs, culture media was collected and stored at −80° C. for ecosanoid measurements using enzyme immunometric assays (PGE2 and TXB2—Cayman Chemical).
(§2) Table 16: Percentage change in eicosanoid synthesis after incubating test compound at 10 μM compared with incubation with vehicle alone.

[5] = tested on: TXB2; experiment: as above; assay type: cell-based, mouse; conditions: 10 μM; negative values indicate inhibition
Experimental: as §1, §2

[6] = tested on: HPAC (CRL-2119) pancreatic cancer cell line; experiment: Proliferation assay (MTT); assay type: cell-based, human; conditions: Homo sapiens, HPAC, Table 2.2; Pancreatic HPAC; read-out: IC50
[7] = tested on: cancer cell lines; experiment: Proliferation assays, statements over several cancer cell lines; assay type: cell-based; conditions: all melanoma cell lines tested to date
Experimental: (§3) IC50 values were determined for each cell line. Cells were seeded in 96-well plates at an appropriate cell density as determined from growth kinetics analysis and cultured for 5 days in the absence and presence of the test compounds. Cell proliferation was assessed after the addition of 20 μl of 3-4,5 dimethylthiazol-2,5-diphenyl tetrazolium bromide (MTT, 2.5 mg/ml in PBS, Sigma) for 3-4 hrs at 37° C. according to manufacturer's instructions. IC50 values were calculated from semi-log plots of % of control proliferation on the y-axis against log dose on the x-axis.

[8] = tested on: MM96L (Melanoma); experiment: HHC as chemosensitiser; assay type: cell-based
Text: (§4) HHC was screened as chemosensitiser against a panel cell lines representative of a range cancer indications using a panel of cytotoxics commonly used in the treatment of cancer.

[9] = tested on: CP70 (Ovarian); experiment: HHC as chemosensitiser; assay type: cell-based
Text: as §4

[10] = tested on: PC3 (Prostate); experiment: HHC as chemosensitiser; assay type: cell-based
Text: as §4

[11] = tested on: MDA-468 (Breast); experiment: HHC as chemosensitiser; assay type: cell-based; conditions: Breast MDA-468
Text: as §4

[12] = tested on: HTB-13.8 (Glioma); experiment: HHC as chemosensitiser; assay type: cell-based; conditions: Glioma HTB-13.8
Text: as §4

[13] = tested on: HPAC (Pancreatic); experiment: HHC as chemosensitiser; assay type: cell-based
Text: as §4

[14] = tested on: cancer cell lines from different pathologies; experiment: HHC as chemosensitiser, statements by cancer indication; assay type: cell-based
Text: as §4

[15] = tested on: MDA-MB-468 breast cancer cell line; experiment: Proliferation assay (MTT); assay type: cell-based; conditions: Homo sapiens, MDA-MB-468, Table 2.2; Breast MDA-MB-468; read-out: IC50
[16] = tested on: rabbit kidney cells (RK); experiment: Proliferation assay (MTT), normal cell toxicity; assay type: cell-based
Experimental: (§5) The normal cell line NFF (neonatal foreskin fibroblasts) was a sift from Dr. Peter Parsons (Queensland Institute of Medical Research). RK (rabbit kidney) cells were obtained from Miller Whalley (Macquarie University). Both cell lines were cultured in RPMI supplemented with 10% FCS(CSL, Australia), penicillin (100 U/ml), streptomycin ([…]), L-glutamine (2 mM) and sodium bicarbonate (1.2 g/L), and cultured at 37° C. in a humidified atmosphere of 5% CO2.
as §3

[17] = HMC and HHC pharmacokinetics, oral, human patients; assay type: in vivo; conditions: plasma
Experimental: Human patients were orally dosed with 200 mg of either HMC or HHC. For each challenged patient, blood was taken over a 6 hour period and the results averaged to characterise the plasma pharmacokinetics.

[18] = tested on: Neonatal foreskin fibroblasts (NFF); experiment: Proliferation assay (MTT), normal cell toxicity; assay type: cell-based, Human
Experimental: as §5, §3

[19] = tested on: HT-29 (Colorectal); experiment: Proliferation assay (MTT); assay type: cell-based; conditions: Homo sapiens, HT-29, Table 2.2; Colorectal HT-29
Experimental: (§6) All cultures were supplemented with 10% FCS (fetal calf serum CSL, Australia), penicillin (100 U/ml), streptomycin ([…]), L-glutamine (2 mM) and sodium bicarbonate (1.2 g/L), and cultured at 37° C. in a humidified atmosphere of 5% CO2. All cell lines were purchased from ATCC (Maryland, USA) except where noted.
as §3

[20] = tested on: PC3 prostate cancer cell line; experiment: Proliferation assay (MTT); assay type: cell-based; conditions: Table 2.2
Experimental: as §6, §3

[21] = tested on: NCI-H460 (Lung); experiment: Proliferation assay (MTT); assay type: cell-based; conditions: Homo sapiens, NCI-H460, Table 2.2; NSC Lung NCI-H460
Experimental: as §6, §3

[22] = tested on: RM melanoma cell line; experiment: Proliferation assay (MTT); assay type: cell-based; conditions: Table 15
Experimental: as §6, §3

[23] = tested on: IGR-3 (Melanoma); experiment: Proliferation assay (MTT); assay type: cell-based; conditions: Table 15; melanoma IgR3
Experimental: as §6, §3

[24] = tested on: MM96L melanoma cell line; experiment: Proliferation assay (MTT); assay type: cell-based; conditions: Homo sapiens, Table 15
Experimental: as §6, §3

[25] = tested on: SKMe128 melanoma cell line; experiment: Proliferation assay (MTT); assay type: cell-based; conditions: Table 15
Experimental: as §6, §3

[26] = tested on: HTB-138 (Glioma); experiment: Proliferation assay (MTT); assay type: cell-based; conditions: Table 2.2; Glioma HTB-138
Experimental: as §6, §3

[27] = tested on: 4405 melanoma cell line; experiment: Proliferation assay (MTT); assay type: cell-based; conditions: Table 15; melanoma 4405
Experimental: as §6, §3

[28] = tested on: CCRF-CEM (Leukemic); experiment: Proliferation assay (MTT); assay type: cell-based; conditions: Homo sapiens, CCRF-CEM, Table 2.2; Leukaemia CCRF-CEM
Experimental: as §6, §3

[29] = human, po, humans dosed orally with 200 mg

- IC50 ([1]; Table 2.2, Melanoma MM200): 0.6 ± 0.3 µM
- IC50 ([1]; Table 15, melanoma MM200, monotherapy): 0.66 ± 0.28 µM
- IC50 [2]: 1.1 ± 0.9 µM
- IC50 [3]: 0.34 µM
- IC50 [6]: 31.6 ± 27 µM
- IC50 [7]: < 1 µM
- IC50 [15]: 1 ± 0.1 µM
- Cmax [17, 29]: 0.341 µg/mL
- Tmax [17, 29]: 2.67 h
- t1/2 ([17]; humans dosed orally with 200 mg): 3.26 h
- half-life ([17]; human patients, 200 mg oral, initial results): 3.26 h
- IC50 [19]: 2.5 ± 1 µM
- IC50 [20]: 0.88 ± 0.4 µM
- IC50 [21]: 0.5 ± 0.1 µM
- IC50 [22]: 0.39 ± 0.28 µM
- IC50 [23]: 0.2 µM
- IC50 [24]: 0.2 ± 0.09 µM
- IC50 [25]: 0.36 ± 0.34 µM
- IC50 [26]: 0.52 ± 0.1 µM
- IC50 [27]: 0.5 µM
- IC50 [28]: 0.6 ± 0.01 µM
SMILES: Oc1ccc(C2COc3cc(O)ccc3C2c2ccc(O)cc2)cc1 (stereo not drawn) [Compound 11, 3-(4-hydroxyphenyl)-4-(4-hydroxyphenyl)chroman-7-ol]
- Percentage change in PGE2 synthesis vs vehicle alone [4]: 27.2%
- Percentage change in TXB2 synthesis vs vehicle alone [5]: 51.4%
- chemosensitisation to cisplatin, carboplatin and decarbazine ([8]; MM96L melanoma cell line): strongly chemosensitise
- Synergy of HHC with Carboplatin ([8]; Melanoma MM96L): SSSSS (SSSSS = Synergy)
- Synergy of HHC with Cisplatin ([8]; Melanoma MM96L): SSSSS (SSSSS = Synergy)
- Synergy of HHC with Dacarbazine ([8]; Melanoma MM96L): SSSSS (SSSSS = Synergy)
- Synergy of HHC with Cisplatin [9]: SSSSS (SSSSS = Synergy)
- Synergy of HHC with Gemcitabine [9]: SSSSS (SSSSS = Synergy)
- Synergy of HHC with Paclitaxel ([9]; listed as HHC): n.o. (n.o. = not observed)
- Synergy of HHC with Cisplatin [10]: SSSSS (SSSSS = Synergy)
- Synergy of HHC with Gemcitabine [10]: SSSSS (SSSSS = Synergy)
- Synergy of HHC with Paclitaxel [10]: n.o. (n.o. = not observed)
- Synergy of HHC with Gemcitabine [11]: SSSSS (SSSSS = Synergy)
- Synergy of HHC with Cisplatin [12]: n.o. (n.o. = not observed)
- Synergy of HHC with Gemcitabine [12]: SSSSS (SSSSS = Synergy)
- Synergy of HHC with Paclitaxel ([12]; listed as HHC): n.o. (n.o. = not observed)
- Synergy of HHC with Cisplatin [13]: n.o. (n.o. = not observed)
- Synergy of HHC with Gemcitabine [13]: SSSSS (SSSSS = Synergy)
- Synergy of HHC with Paclitaxel [13]: n.o. (n.o. = not observed)
- synergy HHC:paclitaxel ([14]; breast and colorectal cancer, and melanoma cell lines): Moderate synergy
- synergy HHC:cisplatin ([14]; colorectal cancer cell lines): mild synergy
- synergy HHC:cisplatin ([14]; ovarian and prostate cancer): Strong synergy
- synergy HHC:paclitaxel ([14]; ovarian cancer and glioma cell lines): Equivocal synergy
- chemosensitisation to gemcitabine ([14]; ovarian, prostate, breast and pancreatic cancers, and glioma): strongly chemosensitise
- synergy HHC:cisplatin ([14]; pancreatic cancer and glioma): synergy was not observed
- synergy HHC:paclitaxel ([14]; prostate and pancreatic cancer cell lines): no evidence of synergy
- IC50 ([16]; Oryctolagus cuniculus, Table 1, Rabbit Kidney, read-out: IC50): > 150 µM
- IC50 ([16]; rabbit kidney cells): non-toxic
- IC50 ([18]; Homo sapiens, Fibroblast, Table 1, Neonatal Foreskin Fibroblasts (Human, NFF), read-out: IC50): 60.8 µM
- IC50 ([18]; NFF): non-toxic
